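Test compounds were applied to cells in 96-well plates for 48 hours at 5 doses. Here, GI50 denotes the concentration required for 50% inhibition of growth.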 The source made the active and inactive calls. Rule as the data show it: active = GI50 up to about 1.1 µM and inactive = higher.
What was measured:
Assay in all cases: inhibition of tumour cell growth, NCI panel, 48 h
[1] = system: 786-0
[2] = system: A498
[3] = system: A549
[4] = system: ACHN
[5] = system: BT-549
[6] = system: CAKI-1
[7] = system: CCRF-CEM
[8] = system: COLO 205
[9] = system: DU-145
[10] = system: EKVX
[11] = system: HCC 2998
[12] = system: HCT-116
[13] = system: HCT-15
[14] = system: HL-60
[15] = system: HOP-92
[16] = system: HT-29
[17] = system: Hs-578T
[18] = system: IGROV-1
[19] = system: K562
[20] = system: KM12
[21] = system: LOX IMVI
[22] = system: M14
[23] = system: MCF7
[24] = system: MDA-MB-231
[25] = system: MDA-MB-435
[26] = system: MDA-N
[27] = system: MOLT-4
[28] = system: Malme-3M
[29] = system: NCI-H226
[30] = system: NCI-H23
[31] = system: NCI-H460
[32] = system: NCI/ADR-RES
[33] = system: OVCAR-3
[34] = system: OVCAR-4
[35] = system: OVCAR-5
[36] = system: OVCAR-8
[37] = system: PC-3
[38] = system: RPMI-8226
[39] = system: RXF 393
[40] = system: SF-268
[41] = system: SF-295
[42] = system: SF-539
[43] = system: SK-MEL-28
[44] = system: SK-MEL-2
[45] = system: SK-MEL-5
[46] = system: SK-OV-3
[47] = system: SNB-19
[48] = system: SNB-75
[49] = system: SR
[50] = system: SW-620
[51] = system: T47D
[52] = system: TK-10
[53] = system: U-251
[54] = system: UACC-257
[55] = system: UACC-62
[56] = system: UO-31
[57] = system: HOP-62
[58] = system: SN12C

O=C1Nc2ccccc2/C1=N/NC(=O)C(O)(c1ccccc1)c1ccccc1
GI50 [1]: 35.4 µM (inactive)
GI50 [2]: 18.3 µM (inactive)
GI50 [3]: 17.1 µM (inactive)
GI50 [4]: 29.4 µM (inactive)
GI50 [5]: 14.1 µM (inactive)
GI50 [6]: 31.7 µM (inactive)
GI50 [7]: 26.1 µM (inactive)
GI50 [8]: 18 µM (inactive)
GI50 [9]: 25.1 µM (inactive)
GI50 [10]: 30.5 µM (inactive)
GI50 [11]: 14.6 µM (inactive)
GI50 [12]: 22.9 µM (inactive)
GI50 [13]: 16.4 µM
GI50 [14]: 17.4 µM (inactive)
GI50 [15]: 18.9 µM (inactive)
GI50 [16]: 19.5 µM (inactive)
GI50 [17]: 25.6 µM (inactive)
GI50 [18]: 19.6 µM (inactive)
GI50 [19]: 23.2 µM (inactive)
GI50 [20]: 17.4 µM (inactive)
GI50 [21]: 16.7 µM (inactive)
GI50 [22]: 16.7 µM (inactive)
GI50 [23]: 22.4 µM (inactive)
GI50 [24]: 18.1 µM (inactive)
GI50 [25]: 17 µM (inactive)
GI50 [26]: 16.9 µM (inactive)
GI50 [27]: 15.2 µM (inactive)
GI50 [28]: 20.7 µM (inactive)
GI50 [29]: 20.6 µM (inactive)
GI50 [30]: 16.1 µM (inactive)
GI50 [31]: 17.2 µM (inactive)
GI50 [32]: 23.9 µM (inactive)
GI50 [33]: 20 µM (inactive)
GI50 [34]: 24.2 µM (inactive)
GI50 [35]: 17.2 µM (inactive)
GI50 [36]: 24.7 µM (inactive)
GI50 [37]: 16.6 µM (inactive)
GI50 [38]: 19.6 µM (inactive)
GI50 [39]: 14.6 µM (inactive)
GI50 [40]: 27.1 µM (inactive)
GI50 [41]: 18.8 µM (inactive)
GI50 [42]: 15.8 µM (inactive)
GI50 [43]: 17.7 µM (inactive)
GI50 [44]: 17 µM (inactive)
GI50 [45]: 16.2 µM (inactive)
GI50 [46]: 22.9 µM (inactive)
GI50 [47]: 16.7 µM (inactive)
GI50 [48]: 21.1 µM (inactive)
GI50 [49]: 21.2 µM (inactive)
GI50 [50]: 17.1 µM (inactive)
GI50 [51]: 23.8 µM (inactive)
GI50 [52]: 28.8 µM (inactive)
GI50 [53]: 18.2 µM (inactive)
GI50 [54]: 22 µM (inactive)
GI50 [55]: 15.8 µM (inactive)
GI50 [56]: 15.6 µM (inactive)

COC(=O)C1=C(OC(=O)c2ccccc2)C(C(=O)OC)[C@]2(O)[C@@H](C(=O)OC)[C@H]1C[C@@H](c1ccccc1)[C@@H]2C(=O)OC (stereo partly drawn)
GI50 [1]: 16.4 µM (inactive)
GI50 [2]: 16.3 µM (inactive)
GI50 [3]: 9.18 µM (inactive)
GI50 [4]: 10.9 µM (inactive)
GI50 [5]: 12.2 µM (inactive)
GI50 [6]: 14.2 µM (inactive)
GI50 [7]: 0.716 µM (active)
GI50 [8]: 10.2 µM (inactive)
GI50 [9]: 9.4 µM (inactive)
GI50 [10]: 34 µM (inactive)
GI50 [11]: 7.21 µM (inactive)
GI50 [12]: 3.96 µM (inactive)
GI50 [13]: 7.82 µM
GI50 [14]: 2.02 µM (inactive)
GI50 [57]: 13.2 µM (inactive)
GI50 [15]: 2.82 µM (inactive)
GI50 [16]: 15.7 µM (inactive)
GI50 [17]: 13.8 µM (inactive)
GI50 [18]: 4.69 µM (inactive)
GI50 [19]: 3.33 µM (inactive)
GI50 [20]: 8.63 µM (inactive)
GI50 [21]: 9.31 µM (inactive)
GI50 [22]: 1.95 µM (inactive)
GI50 [23]: 3.01 µM (inactive)
GI50 [24]: 15.7 µM (inactive)
GI50 [25]: 2.45 µM (inactive)
GI50 [26]: 1.95 µM (inactive)
GI50 [27]: 3.64 µM (inactive)
GI50 [28]: 13.5 µM (inactive)
GI50 [29]: 2.56 µM (inactive)
GI50 [30]: 6.32 µM (inactive)
GI50 [31]: 9.68 µM (inactive)
GI50 [32]: 2.62 µM (inactive)
GI50 [33]: 10.8 µM (inactive)
GI50 [34]: 10.6 µM (inactive)
GI50 [35]: 22.9 µM (inactive)
GI50 [36]: 6.11 µM (inactive)
GI50 [37]: 4.82 µM (inactive)
GI50 [38]: 1.74 µM (inactive)
GI50 [39]: 3.14 µM (inactive)
GI50 [40]: 11.4 µM (inactive)
GI50 [41]: 5.82 µM (inactive)
GI50 [42]: 2.2 µM (inactive)
GI50 [43]: 12.2 µM (inactive)
GI50 [44]: 2.81 µM (inactive)
GI50 [45]: 4.85 µM (inactive)
GI50 [46]: 10.6 µM (inactive)
GI50 [58]: 8.43 µM (inactive)
GI50 [47]: 10.7 µM (inactive)
GI50 [49]: 8.87 µM (inactive)
GI50 [50]: 5.12 µM (inactive)
GI50 [51]: 6.52 µM (inactive)
GI50 [52]: 17.3 µM (inactive)
GI50 [53]: 5.24 µM (inactive)
GI50 [54]: 5.62 µM (inactive)
GI50 [55]: 11.6 µM (inactive)
GI50 [56]: 2.52 µM (inactive)

CCOC(=O)/C=C(\N=P(c1ccccc1)(c1ccccc1)c1ccccc1)C(F)(F)C(F)(F)C(F)(F)C(F)(F)C(F)(F)F
GI50 [1]: > 100 µM (inactive)
GI50 [2]: 0.0675 µM (active)
GI50 [3]: > 100 µM (inactive)
GI50 [4]: 47.8 µM (inactive)
GI50 [5]: > 100 µM (inactive)
GI50 [6]: > 100 µM (inactive)
GI50 [7]: > 100 µM (inactive)
GI50 [8]: > 100 µM (inactive)
GI50 [9]: > 100 µM (inactive)
GI50 [11]: > 100 µM (inactive)
GI50 [12]: > 100 µM (inactive)
GI50 [13]: > 100 µM
GI50 [14]: > 100 µM (inactive)
GI50 [57]: > 100 µM (inactive)
GI50 [15]: > 100 µM (inactive)
GI50 [16]: > 100 µM (inactive)
GI50 [17]: > 100 µM (inactive)
GI50 [18]: > 100 µM (inactive)
GI50 [19]: > 100 µM (inactive)
GI50 [20]: > 100 µM (inactive)
GI50 [21]: > 100 µM (inactive)
GI50 [22]: > 100 µM (inactive)
GI50 [23]: > 100 µM (inactive)
GI50 [24]: > 100 µM (inactive)
GI50 [25]: > 100 µM (inactive)
GI50 [26]: > 100 µM (inactive)
GI50 [27]: > 100 µM (inactive)
GI50 [28]: > 100 µM (inactive)
GI50 [30]: > 100 µM (inactive)
GI50 [31]: > 100 µM (inactive)
GI50 [32]: > 100 µM (inactive)
GI50 [33]: > 100 µM (inactive)
GI50 [34]: > 100 µM (inactive)
GI50 [35]: > 100 µM (inactive)
GI50 [37]: > 100 µM (inactive)
GI50 [38]: > 100 µM (inactive)
GI50 [39]: > 100 µM (inactive)
GI50 [40]: > 100 µM (inactive)
GI50 [41]: > 100 µM (inactive)
GI50 [42]: > 100 µM (inactive)
GI50 [43]: > 100 µM (inactive)
GI50 [44]: > 100 µM (inactive)
GI50 [45]: > 100 µM (inactive)
GI50 [46]: > 100 µM (inactive)
GI50 [58]: > 100 µM (inactive)
GI50 [47]: > 100 µM (inactive)
GI50 [48]: > 100 µM (inactive)
GI50 [49]: > 100 µM (inactive)
GI50 [50]: > 100 µM (inactive)
GI50 [51]: > 100 µM (inactive)
GI50 [52]: > 100 µM (inactive)
GI50 [53]: > 100 µM (inactive)
GI50 [54]: > 100 µM (inactive)
GI50 [55]: > 100 µM (inactive)
GI50 [56]: > 100 µM (inactive)

Reference: ChEMBL document CHEMBL1201862, “PubChem BioAssay data set” (2004)
